How the values were obtained:
[1] = Agonist activity at MRGPRX4 83L expressed in human HEK293 cells co- expressing Gq assessed as change in intracellular calcium level by calcium mobilization assay; type: cell-based
[2] = Agonist activity at MRGPRX4 83S expressed in human HEK293 cells co- expressing Gq assessed as change in intracellular calcium level by calcium mobilization assay; type: cell-based

Structure (SMILES)	EC50 [1]	EC50 [2]
COc1cccc(CCc2nc3c([nH]2)c(=O)n(CC#N)c(=O)n3CCCCP(=O)(O)O)c1	0.435 µM	0.0112 µM
CC12CC3CC(C)(C1)CC(C(=O)N[C@H](Cc1ccccc1)C(=O)O)(C3)C2	0.00656 µM	13.3 µM
C[C@H](CCC(=O)O)[C@H]1CC[C@H]2[C@@H]3CC[C@@H]4C[C@H](O)CC[C@]4(C)[C@H]3C[C@H](O)[C@]12C [DEOXYCHOLIC ACID]		16.9 µM

Continued, values first:

EC50 [1]	EC50 [2]	Structure (SMILES)
	> 10 µM	CC(C)[C@H]1CC[C@H](C(=O)N[C@H](Cc2ccccc2)C(=O)O)CC1 [NATEGLINIDE]
> 10 µM	> 10 µM	C[C@H](CCC(=O)NCCS(=O)(=O)O)[C@H]1CC[C@H]2[C@@H]3CC[C@@H]4C[C@H](O)CC[C@]4(C)[C@H]3C[C@H](O)[C@]12C [TAURODEOXYCHOLIC ACID]
